Results on 2 compounds are retold here after article PMC4232510, “Identification of Functionally Important Residues of the Rat P2X4 Receptor by Alanine Scanning Mutagenesis of the Dorsal Fin and Left Flipper Domains” (PLoS ONE, 2014).

One test has as its system P2X3R S267A. Further details: method as in PMID 16120774; key: n.f.: non-functional mutants; ↑: mutant with significant increased EC50 in comparison to WT (values represent fold increase); ≈: close to WT receptor; D: affected time-constant of the desensitizing current response. The following applies: cited from earlier work.
Another test has as its system P2X4R L206A. Also noted: method as in PMID 24943126; key: n.f.: non-functional mutants; ↑: mutant with significant increased EC50 in comparison to WT (values represent fold increase); ≈: close to WT receptor; D: affected time-constant of the desensitizing current response. The following applies: cited from earlier work.
For the next test, the system named is P2X1R N204A. Also noted: method as in PMID 16371009. The following applies: cited from earlier work.
The next test relates to P2X3R S269A. Also noted: method as in PMID 16226373; key: n.f.: non-functional mutants; ↑: mutant with significant increased EC50 in comparison to WT (values represent fold increase); ≈: close to WT receptor; D: affected time-constant of the desensitizing current response. The following applies: cited from earlier work.
A further test addresses T1, rP2X4R E285A mutant (Rattus norvegicus, UniProt P51577, E285A).
T1 construct: expressed in transfected cells; host or cells: HEK293T
T1 sequence (P51577 1-388 E285A): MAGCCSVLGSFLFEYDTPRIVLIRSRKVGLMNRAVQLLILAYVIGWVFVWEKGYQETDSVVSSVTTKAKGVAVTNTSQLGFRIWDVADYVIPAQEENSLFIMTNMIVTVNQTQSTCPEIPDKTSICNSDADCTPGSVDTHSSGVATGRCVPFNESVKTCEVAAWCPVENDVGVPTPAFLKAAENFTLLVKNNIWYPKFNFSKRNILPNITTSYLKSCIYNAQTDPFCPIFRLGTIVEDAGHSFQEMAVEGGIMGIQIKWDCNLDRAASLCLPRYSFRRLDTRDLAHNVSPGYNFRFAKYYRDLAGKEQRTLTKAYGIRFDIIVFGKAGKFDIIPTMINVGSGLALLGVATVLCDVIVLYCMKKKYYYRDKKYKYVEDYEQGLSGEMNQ
In words: whole-cell patch clamp, HEK293T cells expressing mutant. In kind it is cell-based. In general terms: The patch-clamp technique gives a direct electrical read-out from membranes.

The next test deals with P2X4R H286A. Also noted: method as in PMID 17663752, PMID 15632318, PMID 12819199, PMID 15246547. The following applies: cited from earlier work.
The subject of another test is P2X4R D280A. Further details: method as in PMID 17663752, PMID 15632318. The following applies: cited from earlier work.
For a further test, the system named is P2X4R V288A. Also noted: method as in PMID 24943126. The following applies: cited from earlier work.
The next test has as its system P2X4R I205A. Also noted: method as in PMID 24943126. The following applies: cited from earlier work.
[1] abbreviates: 100 µM ATP 60 s, biexponential fit.

As for `Nc1ncnc2c1ncn2[C@@H]1O[C@H](COP(=O)(O)OP(=O)(O)OP(=O)(O)O)[C@@H](O)[C@H]1O` [ATP], the “change in EC50 for ATP” value with P2X3R S267A is “S267A: ≈[59]”; with P2X4R L206A, “L206A: ≈[49]”. The “fold increase of EC50 for ATP in comparison to WT” value is “N204A: ↑3,5x[45]” in the test with P2X1R N204A; “H286A: ↑2–4x[10], [52], [57], [60]” in the test with P2X4R H286A; “D280A ↑>100x[10], [52]” in the test with P2X4R D280A; “V288A: ↑2x[49]” in the test with P2X4R V288A; “I205A: ↑2,5x[49]” in the test with P2X4R I205A. For the same compound, the change in desensitization entry with P2X3R S269A was “S269A: D[54]”. Moreover, the τdes1 on rP2X4R E285A mutant (setting [1]) is given as 0.9 ± 0.2 s. In addition, the τdes2 at rP2X4R E285A mutant (setting [1]) is given as 8.5 ± 3.6 s. Further, the Imax on rP2X4R E285A mutant (100–1000 µM ATP) was 2.0 ± 0.5 nA. At rP2X4R E285A mutant (ATP after 3 µM IVM 4-6 min), the “Imax+IVM” value is given as 2.6 ± 0.6 nA. In addition, the “A2 /(A1+A2)” value on rP2X4R E285A mutant (contribution of τdes2, 100 µM ATP 60 s) is listed as 65 ± 2%. For the same compound, on rP2X4R E285A mutant (decay after removal of 1 or 3 µM ATP, 3 µM IVM), the “τoff +IVM” value is 24 ± 4.3 s. The compound also had an EC50 at rP2X4R E285A mutant (naïve receptors, 2–5 s application) of 7.1 ± 3 µM. The same compound came in with a τdes on rP2X4R E285A mutant (weighted, 100 µM ATP 60 s) of 6.0 ± 2.6 s.
For `CC[C@H](C)[C@H]1O[C@]2(CC[C@@H]1C)C[C@@H]1C[C@@H](C/C=C(\C)[C@@H](O[C@H]3C[C@H](OC)[C@@H](O[C@H]4C[C@H](OC)[C@@H](O)[C@H](C)O4)[C@H](C)O3)[C@@H](C)/C=C/C=C3\CO[C@@H]4[C@H](O)C(C)=C[C@@H](C(=O)O1)[C@]34O)O2` [IVM, ivermectin], on rP2X4R E285A mutant (3 µM IVM 4-6 min vs IVM-untreated), the “Fold incr. Imax” value worked out at 1.3 ± 0.4 fold.

Usually EC50 stands for the concentration giving half of the maximal effect.
